Values after ≈ are worked out from the molar mass of the structure shown. Positions of bridges follow the written chain, without caps; N, C: chain ends. Non-standard residues stand in square brackets, D forms with d. Residues, ends and D or L forms follow the SMILES beside them. S5 = C=CCCC[C@](C)(N)C(=O)O; Dap = NC[C@H](N)C(=O)O
Experiments:
[1] = system: K. pneumoniae; assay type: cell-based, Klebsiella pneumoniae
Summary of the method: (§1)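 StAMP peptides were tested by CLSI-adapted broth microdilution in MHB or cation-adjusted MHB II, final inoculum 5×10^5 CFU/ml from log-phase cultures. After 20-24 h at 37° C, MIC was taken as the lowest peptide concentration without visible growth.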

[2] = system: A. baumannii; assay type: cell-based, Acinetobacter baumannii
Summary of the method: as §1

[3] = system: P. aeruginosa; assay type: cell-based, Pseudomonas aeruginosa
Summary of the method: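 Broth microdilution adapted from CLSI in MHB or cation-adjusted MHB; log-phase P. aeruginosa at 5×10^5 CFU/ml final with serially diluted stapled peptides. Incubated 20-24 h at 37 °C; MIC is the lowest concentration without visible growth.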

[4] = in vitro; assay type: cell-based; conditions: human, Inhibitory Concentration at 50% Cytotoxicity (IC50) Human Liver Cells (HepG2)
Summary of the method: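 HepG2 cells in EMEM with 10% FBS, allowed 4 h to attach, then exposed to serial dilutions of StAMPs (from a 5 mg/mL water stock) or vehicle. After 48 h at 37 °C, viability read by CellTiter-Glo luminescence.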

[5] = system: S. aureus; assay type: cell-based, Staphylococcus aureus
Summary of the method: as §1

[6] = system: E. coli; assay type: cell-based, Escherichia coli
Summary of the method: as §1

Minimum Inhibitory Concentration (MIC) K. pneumoniae [1] | Minimum Inhibitory Concentration (MIC) A. baumannii [2] | Minimum Inhibitory Concentration (MIC) P. aeruginosa [3] | Minimum Inhibitory Concentration (MIC) S. aureus [5] | Minimum Inhibitory Concentration (MIC) E. coli [6] | Compound | IC50 at 48 hours [4]
32 µg/mL | 1 µg/mL | 1 µg/mL | >64 µg/mL | 2 µg/mL | CC(C)[C@@H]1NC(=O)[C@@](C)(NC(=O)[C@H](C)NC(=O)[C@H](CCCCN)NC(=O)CNC(=O)[C@H](Cc2ccccc2)NC(=O)[C@H](CCCCN)NC(=O)[C@H](CCCCN)NC(=O)[C@H](CCCCN)NC(=O)[C@H](CCCCN)NC(=O)[C@H](CCCCN)NC(=O)[C@]2(C)CCCC=CCCC[C@](C)(NC(=O)CN)C(=O)NCC(=O)N[C@@H](CCCCN)C(=O)N[C@@H](Cc3ccccc3)C(=O)N2)CCCC=CCCC[C@@](C)(C(=O)N[C@@H](C)C(=O)N[C@@H](CCCCN)C(=O)N[C@@H](CCCCN)C(=O)NCC(=O)NCC(=O)N[C@@H](CCC(=O)O)C(N)=O)NC(=O)[C@H](CCC(=O)O)NC(=O)[C@H](CO)NC1=O [compound 93] (H-G[S5]GKF[S5]KKKKKFGKA[S5]VSE[S5]AKKGGE-NH2; staple 2-6, 16-20) | > 200 µg/mL
32 µg/mL | 1 µg/mL | 1 µg/mL | 64 µg/mL | 2 µg/mL | CC(C)[C@@H]1NC(=O)[C@@](C)(NC(=O)[C@H](C)NC(=O)[C@H](CCCCN)NC(=O)[C@H](CO)NC(=O)[C@H](Cc2ccccc2)NC(=O)[C@H](CCCCN)NC(=O)[C@H](CCCCN)NC(=O)[C@H](CCCCN)NC(=O)[C@H](CCCCN)NC(=O)[C@H](CN)NC(=O)[C@]2(C)CCCC=CCCC[C@](C)(NC(=O)CN)C(=O)NCC(=O)N[C@@H](CCCCN)C(=O)N[C@@H](Cc3ccccc3)C(=O)N2)CCCC=CCCC[C@@](C)(C(=O)N[C@@H](C)C(=O)N[C@@H](CCCCN)C(=O)N[C@@H](CCCCN)C(N)=O)NC(=O)[C@H](CCC(=O)O)NC(=O)CNC1=O [compound 86] (H-G[S5]GKF[S5][Dap]KKKKFSKA[S5]VGE[S5]AKK-NH2; staple 2-6, 16-20) | > 200 µg/mL
>64 µg/mL | 16 µg/mL | 64 µg/mL | >64 µg/mL | 64 µg/mL | CC(C)[C@@H]1NC(=O)[C@H](C(C)C)NC(=O)[C@@](C)(NC(=O)[C@H](C)NC(=O)[C@H](CCCCN)NC(=O)CNC(=O)[C@@H](Cc2ccccc2)NC(=O)[C@H](CCCCN)NC(=O)[C@H](CCCCN)NC(=O)[C@H](CCCCN)NC(=O)[C@H](CCCCN)NC(=O)[C@H](Cc2c[nH]cn2)NC(=O)[C@]2(C)CCCC=CCCC[C@](C)(NC(=O)CN)C(=O)NCC(=O)N[C@@H](CCCCN)C(=O)N[C@H](Cc3ccccc3)C(=O)N2)CCCC=CCCC[C@@](C)(C(=O)N[C@@H](C)C(=O)N[C@@H](CCCCN)C(=O)N[C@@H](CCCCN)C(N)=O)NC(=O)[C@H](CCC(=O)O)NC1=O [compound 28] (H-G[S5]GK[dF][S5]HKKKK[dF]GKA[S5]VVE[S5]AKK-NH2; staple 2-6, 16-20) | 201 µg/mL (≈ 76.9 µM)
>64 µg/mL | 4 µg/mL | 2 µg/mL | 64 µg/mL | 8 µg/mL | CC(C)[C@@H]1NC(=O)[C@@](C)(NC(=O)[C@H](C)NC(=O)[C@H](CCCCN)NC(=O)CNC(=O)[C@H](Cc2ccccc2)NC(=O)[C@H](CCCCN)NC(=O)[C@H](CCCCN)NC(=O)[C@H](CCCCN)NC(=O)[C@H](CCCCN)NC(=O)[C@H](CCCCN)NC(=O)[C@]2(C)CCCC=CCCC[C@](C)(NC(=O)CN)C(=O)NCC(=O)N[C@@H](CCCCN)C(=O)N[C@@H](Cc3ccccc3)C(=O)N2)CCCC=CCCC[C@@](C)(C(=O)N[C@@H](CO)C(=O)N[C@@H](CCCCN)C(=O)N[C@@H](CCCCN)C(=O)NCC(=O)NCC(=O)N[C@@H](CCC(=O)O)C(N)=O)NC(=O)[C@H](CCC(=O)O)NC(=O)CNC1=O [compound 94] (H-G[S5]GKF[S5]KKKKKFGKA[S5]VGE[S5]SKKGGE-NH2; staple 2-6, 16-20) | > 200 µg/mL
